What was measured:
Assay type in all cases: in vivo
[1] = tested on: green foxtail (Setaria viridis, SETVI); assay: Pre-emerge greenhouse herbicide test, phytotoxicity rating; conditions: Setaria viridis, pre-emergence, 336 h, 14 days after application, rating scale 0-100; for pest or weed control at 125 g/ha: Rate 125 g al/ha; for pest or weed control at 500 g/ha: Rate 500 g al/ha
Summary of the method: (§1)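 Visual 0–100 injury rating (100 = all plants dead) taken 14 days after treatment. Rates of 125–1000 g ai/ha in acetone, 187 l/ha, were sprayed onto soil one day post-sowing; pots were surface-watered to incorporate, then bottom-watered.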

[2] = tested on: barnyardgrass (Echinochloa crusgalli, ECHCG); assay: as above; conditions: Echinochloa crus-galli, pre-emergence, 336 h, 14 days after application, rating scale 0-100; for pest or weed control at 125 g/ha: Rate 125 g al/ha; for pest or weed control at 500 g/ha: Rate 500 g al/ha
Summary of the method: as §1

[3] = tested on: lambsquarters (Chenopodium album, CHEAL); assay: as above; conditions: Chenopodium album, pre-emergence, 336 h, 14 days after application, rating scale 0-100; for pest or weed control at 125 g/ha: Rate 125 g al/ha; for pest or weed control at 500 g/ha: Rate 500 g al/ha
Summary of the method: as §1

[4] = tested on: sicklepod (Cassia obtusifolia, CASOB); assay: as above; conditions: Senna obtusifolia, pre-emergence, 336 h, 14 days after application, rating scale 0-100; for pest or weed control at 125 g/ha: Rate 125 g al/ha; for pest or weed control at 500 g/ha: Rate 500 g al/ha
Summary of the method: as §1

[5] = tested on: redroot pigweed (Amaranthus retroflexus, AMARE); assay: as above; conditions: Amaranthus retroflexus, pre-emergence, 336 h, 14 days after application, rating scale 0-100; for pest or weed control at 125 g/ha: Rate 125 g al/ha; for pest or weed control at 500 g/ha: Rate 500 g al/ha
Summary of the method: as §1

[6] = tested on: Johnsongrass (Sorghum halepense, SORHA); assay: as above; conditions: Sorghum halepense, pre-emergence, 336 h, 14 days after application, rating scale 0-100; for pest or weed control at 125 g/ha: Rate 125 g al/ha; for pest or weed control at 500 g/ha: Rate 500 g al/ha
Summary of the method: as §1

[7] = tested on: ivyleaf morningglory (Ipomoea hederacea, IPOHE); assay: as above; conditions: Ipomoea, pre-emergence, 336 h, 14 days after application, rating scale 0-100; for pest or weed control at 125 g/ha: Rate 125 g al/ha; for pest or weed control at 500 g/ha: Rate 500 g al/ha
Summary of the method: as §1

[8] = tested on: large crabgrass (Digitaria sanguinalis, DIGSA); assay: as above; conditions: Digitaria sanguinalis, pre-emergence, 336 h, 14 days after application, rating scale 0-100; for pest or weed control at 125 g/ha: Rate 125 g al/ha; for pest or weed control at 500 g/ha: Rate 500 g al/ha
Summary of the method: as §1

[9] = tested on: velvetleaf (Abutilon theophrasti, ABUTH); assay: as above; conditions: Abutilon theophrasti, pre-emergence, 336 h, 14 days after application, rating scale 0-100; for pest or weed control at 125 g/ha: Rate 125 g al/ha; for pest or weed control at 500 g/ha: Rate 500 g al/ha
Summary of the method: as §1

[10] = tested on: green foxtail (Setaria viridis, SETVI); assay: Post-emerge greenhouse herbicide test, phytotoxicity rating; conditions: Setaria viridis, post-emergence, 336 h, 14 days after application, scale 0-100; for pest or weed control at 63 g/ha: rate 63 g ai/ha; for pest or weed control at 500 g/ha: rate 500 g ai/ha
Summary of the method: (§2)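 Scores use a 0 (no damage) to 100 (complete kill) scale, taken 14 days after a foliar spray. Acetone solutions with 0.25% v/v non-ionic surfactant were applied by track sprayer at 187 l/ha and 63-1000 g ai/ha to bottom-watered 2-3 leaf plants.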

[11] = tested on: lambsquarters (Chenopodium album, CHEAL); assay: as above; conditions: Chenopodium album, post-emergence, 336 h, 14 days after application, scale 0-100; for pest or weed control at 63 g/ha: rate 63 g ai/ha; for pest or weed control at 500 g/ha: rate 500 g ai/ha
Summary of the method: as §2

[12] = tested on: sicklepod (Cassia obtusifolia, CASOB); assay: as above; conditions: Senna obtusifolia, post-emergence, 336 h, 14 days after application, scale 0-100; for pest or weed control at 63 g/ha: rate 63 g ai/ha; for pest or weed control at 500 g/ha: rate 500 g ai/ha
Summary of the method: as §2

[13] = tested on: redroot pigweed (Amaranthus retroflexus, AMARE); assay: as above; conditions: Amaranthus retroflexus, post-emergence, 336 h, 14 days after application, scale 0-100; for pest or weed control at 63 g/ha: rate 63 g ai/ha; for pest or weed control at 500 g/ha: rate 500 g ai/ha
Summary of the method: as §2

[14] = tested on: ivyleaf morningglory (Ipomoea hederacea, IPOHE); assay: as above; conditions: Ipomoea, post-emergence, 336 h, 14 days after application, scale 0-100; for pest or weed control at 63 g/ha: rate 63 g ai/ha; for pest or weed control at 500 g/ha: rate 500 g ai/ha
Summary of the method: as §2

[15] = tested on: large crabgrass (Digitaria sanguinalis, DIGSA); assay: as above; conditions: Digitaria sanguinalis, post-emergence, 336 h, 14 days after application, scale 0-100; for pest or weed control at 63 g/ha: rate 63 g ai/ha; for pest or weed control at 500 g/ha: rate 500 g ai/ha
Summary of the method: as §2

Row | SMILES | pest or weed control at 125 g/ha [1] | pest or weed control at 500 g/ha [1] | pest or weed control at 125 g/ha [2] | pest or weed control at 500 g/ha [2] | pest or weed control at 125 g/ha [3] | pest or weed control at 500 g/ha [3] | pest or weed control at 125 g/ha [4] | pest or weed control at 500 g/ha [4] | pest or weed control at 125 g/ha [5] | pest or weed control at 500 g/ha [5] | pest or weed control at 125 g/ha [6] | pest or weed control at 500 g/ha [6] | pest or weed control at 125 g/ha [7] | pest or weed control at 500 g/ha [7] | pest or weed control at 125 g/ha [8] | pest or weed control at 500 g/ha [8] | pest or weed control at 125 g/ha [9] | pest or weed control at 500 g/ha [9] | pest or weed control at 63 g/ha [10] | pest or weed control at 500 g/ha [10] | further results
1 | Nn1c(C(F)(F)F)cc(=O)n(-c2cc(Oc3ccccc3[N+](=O)[O-])c(Cl)cc2F)c1=O [Compound 9-21, 1-amino-3-[4-chloro-2-fluoro-5-(2-nitrophenoxy)phenyl]-6-trifluoromethyl-1,2,3,4-tetrahydropyrimidine-2,4-dione] | 100% | 100% | 90% | 100% | 100% | 100% | 30% | 90% | 100% | 100% | 90% | 100% | 60% | 100% | 100% | 100% | 100% | 100% | 90% | 100% | pest or weed control at 63 g/ha [11]: 100%; pest or weed control at 500 g/ha [11]: 100%; pest or weed control at 63 g/ha [12]: 100%; pest or weed control at 500 g/ha [12]: 100%; pest or weed control at 63 g/ha [13]: 100%; pest or weed control at 500 g/ha [13]: 100%; pest or weed control at 63 g/ha [14]: 100%; pest or weed control at 500 g/ha [14]: 100%; pest or weed control at 63 g/ha [15]: 30%; pest or weed control at 500 g/ha [15]: 90%
2 | O=c1n(-c2cc(Oc3ncccc3C(F)(F)F)c(Cl)cc2F)c(=S)n2n1CCCC2 [Compound 8-18, 2-[4-chloro-2-fluoro-5-(3-trifluoromethyl-2pyridyloxy)phenyl]hexahydro-3-thioxo-1H-[1,2,4]triazolo[1,2-a]pyridazin-1-one] | 95% | 100% | 40% | 80% | 100% | 100% | 20% | 40% | 100% | 100% | 40% | 100% | 20% | 45% | 50% | 100% | 100% | 100% | 40% | 70% | pest or weed control at 63 g/ha [11]: 100%; pest or weed control at 500 g/ha [11]: 100%; pest or weed control at 63 g/ha [12]: 70%; pest or weed control at 500 g/ha [12]: 100%; pest or weed control at 63 g/ha [13]: 100%; pest or weed control at 500 g/ha [13]: 100%; pest or weed control at 63 g/ha [14]: 100%; pest or weed control at 500 g/ha [14]: 100%; pest or weed control at 63 g/ha [15]: 0%; pest or weed control at 500 g/ha [15]: 10%
3 | N#Cc1cccnc1Oc1cc(-n2c(=O)cc(C(F)(F)F)n(N)c2=O)c(F)cc1Cl [Compound 9-9, 1-Amino-3-[4-chloro-2-fluoro-5-(3-cyano-2-pyridyloxy)phenyl]-6-trifluoromethyl-1,2,3,4-tetrahydropyrimidine-2,4-dione] | 100% | 100% | 100% | 100% | 100% | 100% | 100% | 100% | 100% | 100% | 100% | 100% | 100% | 100% | 100% | 100% | 100% | 100% | 20% | 90% | pest or weed control at 63 g/ha [11]: 90%; pest or weed control at 500 g/ha [11]: 100%; pest or weed control at 63 g/ha [12]: 90%; pest or weed control at 500 g/ha [12]: 100%; pest or weed control at 63 g/ha [13]: 100%; pest or weed control at 500 g/ha [13]: 100%; pest or weed control at 63 g/ha [14]: 90%; pest or weed control at 500 g/ha [14]: 100%; pest or weed control at 63 g/ha [15]: 10%; pest or weed control at 500 g/ha [15]: 90%
